Experimental findings from ChEMBL document CHEMBL3045406, “Enantioselective Relieving Activity of α-Methylbenzylphenylureas toward Bensulfuron-methyl Injury to Rice (Oryza sativa)” (Biosci Biotechnol Biochem, 1999) are described below.

The first data set has as its system Oryza sativa. Description: Relieving activity against bensulfuron-methyl induced injury to Oryza sativa (rice) assessed as growth rate at 0.1 uM (Rbv = 46 to 53%). The class given is functional.
Settings: not given
As to `C[C@H](NC(=O)Nc1ccccc1Cl)c1ccccc1`, the Activity is on record as 75%.
The same measure, in the same setting: next, `C[C@@H](NC(=O)Nc1cccc(C(F)(F)F)c1)c1ccccc1`: 57%.
With `CCc1ccc(NC(=O)N[C@@H](C)c2ccccc2)cc1`, the Activity is given as 74%.
Still for that read-out and setting: next, `COc1ccccc1NC(=O)N[C@@H](C)c1ccccc1`: 55%.
Turning to `CC(C)c1ccc(NC(=O)N[C@H](C)c2ccccc2)cc1`, the Activity was found to be 49%.
Same read-out and setting: next, `C[C@H](NC(=O)Nc1ccc(Cl)c(Cl)c1)c1ccccc1`: 70%; `CCc1ccccc1NC(=O)N[C@H](C)c1ccccc1`: 52%; `C[C@@H](NC(=O)Nc1ccc(C(C)(C)C)cc1)c1ccccc1`: 58%.
Same read-out and setting: next, `C[C@H](NC(=O)Nc1cccc(Cl)c1)c1ccccc1`: 68%; `Cc1ccccc1NC(=O)N[C@@H](C)c1ccccc1`: 52%.

A further data set concerns Oryza sativa. Description: Safener indices, ratio of compound effect of Oryza sativa (rice) growth rate to relieving activity against bensulfuron-methyl induced injury to Oryza sativa growth rate at 0.1 uM.
Settings: not given
For the molecule `C[C@H](NC(=O)Nc1ccccc1Cl)c1ccccc1`, the Ratio came to 50.
Consider `C[C@@H](NC(=O)Nc1cccc(C(F)(F)F)c1)c1ccccc1`, for which the Ratio worked out at 26.
On to `CCc1ccc(NC(=O)N[C@@H](C)c2ccccc2)cc1`, for which the Ratio came out at 7.
Still for that read-out and setting: next, `COc1ccccc1NC(=O)N[C@@H](C)c1ccccc1`: 9.
In the case of `CC(C)c1ccc(NC(=O)N[C@H](C)c2ccccc2)cc1`, the Ratio stood at 7.
With `C[C@H](NC(=O)Nc1ccc(Cl)c(Cl)c1)c1ccccc1`, the Ratio turned out to be 39.
Regarding `CCc1ccccc1NC(=O)N[C@H](C)c1ccccc1`, the Ratio worked out at 1.
Take `C[C@@H](NC(=O)Nc1ccc(C(C)(C)C)cc1)c1ccccc1`: the Ratio worked out at 15.
Same read-out and setting: next, `C[C@H](NC(=O)Nc1cccc(Cl)c1)c1ccccc1`: 31; `Cc1ccccc1NC(=O)N[C@@H](C)c1ccccc1`: 5.

The next data set concerns Oryza sativa. Description: Relieving activity against bensulfuron-methyl induced injury to Oryza sativa (rice) assessed as growth rate at 10 uM (Rbv = 46 to 53%). In kind it is functional.
Settings: not given
`C[C@H](NC(=O)Nc1ccccc1Cl)c1ccccc1`: the Activity turned out to be 98%.
The same measure, in the same setting: next, `C[C@@H](NC(=O)Nc1cccc(C(F)(F)F)c1)c1ccccc1`: 68%.
Still for that read-out and setting: next, `CCc1ccc(NC(=O)N[C@@H](C)c2ccccc2)cc1`: 84%.
Turning to `COc1ccccc1NC(=O)N[C@@H](C)c1ccccc1`, the Activity is reported as 74%.
On the same count and under the same terms, next, `CC(C)c1ccc(NC(=O)N[C@H](C)c2ccccc2)cc1`: 49%; `C[C@H](NC(=O)Nc1ccc(Cl)c(Cl)c1)c1ccccc1`: 90%; `CCc1ccccc1NC(=O)N[C@H](C)c1ccccc1`: 72%.
As to `C[C@@H](NC(=O)Nc1ccc(C(C)(C)C)cc1)c1ccccc1`, the Activity was 57%.
Turning to `C[C@H](NC(=O)Nc1cccc(Cl)c1)c1ccccc1`, the Activity is recorded as 92%.
The same measure, in the same setting: next, `Cc1ccccc1NC(=O)N[C@@H](C)c1ccccc1`: 79%.

A further data set deals with Oryza sativa. Description: Effect on Oryza sativa (rice) assessed as growth rate at 0.1 uM relative to control. The class given is organism-based. The conditions noted are these: in vivo.
Consider `C[C@H](NC(=O)Nc1ccccc1Cl)c1ccccc1`, for which the Activity is reported as 99%.
Still for that read-out and setting: next, `C[C@@H](NC(=O)Nc1cccc(C(F)(F)F)c1)c1ccccc1`: 82%.
As to `CCc1ccc(NC(=O)N[C@@H](C)c2ccccc2)cc1`, the Activity came to 99%.
On the same count and under the same terms, next, `COc1ccccc1NC(=O)N[C@@H](C)c1ccccc1`: 98%; `CC(C)c1ccc(NC(=O)N[C@H](C)c2ccccc2)cc1`: 99%; `C[C@H](NC(=O)Nc1ccc(Cl)c(Cl)c1)c1ccccc1`: 98%.
On the same count and under the same terms, next, `CCc1ccccc1NC(=O)N[C@H](C)c1ccccc1`: 101%.
`C[C@@H](NC(=O)Nc1ccc(C(C)(C)C)cc1)c1ccccc1`: the Activity was determined as 100%.
Same read-out and setting: next, `C[C@H](NC(=O)Nc1cccc(Cl)c1)c1ccccc1`: 103%; `Cc1ccccc1NC(=O)N[C@@H](C)c1ccccc1`: 100%.

The next data set relates to Oryza sativa. Description: Effect on Oryza sativa (rice) assessed as growth rate at 10 uM relative to control. The conditions noted are these: in vivo. The class given is organism-based.
On to `C[C@H](NC(=O)Nc1ccccc1Cl)c1ccccc1`, for which the Activity was found to be 106%.
On the same count and under the same terms, next, `C[C@@H](NC(=O)Nc1cccc(C(F)(F)F)c1)c1ccccc1`: 70%; `CCc1ccc(NC(=O)N[C@@H](C)c2ccccc2)cc1`: 91%.
On the same count and under the same terms, next, `COc1ccccc1NC(=O)N[C@@H](C)c1ccccc1`: 95%; `CC(C)c1ccc(NC(=O)N[C@H](C)c2ccccc2)cc1`: 49%; `C[C@H](NC(=O)Nc1ccc(Cl)c(Cl)c1)c1ccccc1`: 99%.
Same read-out and setting: next, `CCc1ccccc1NC(=O)N[C@H](C)c1ccccc1`: 92%; `C[C@@H](NC(=O)Nc1ccc(C(C)(C)C)cc1)c1ccccc1`: 53%.
As for `C[C@H](NC(=O)Nc1cccc(Cl)c1)c1ccccc1`, the Activity was 103%.
On the same count and under the same terms, next, `Cc1ccccc1NC(=O)N[C@@H](C)c1ccccc1`: 99%.

The next data set concerns Oryza sativa. Description: Safener indices, ratio of compound effect of Oryza sativa (rice) growth rate to relieving activity against bensulfuron-methyl induced injury to Oryza sativa growth rate at 1 uM.
Settings: not given
As to `C[C@H](NC(=O)Nc1ccccc1Cl)c1ccccc1`, the Ratio came out at 80.
Consider `C[C@@H](NC(=O)Nc1cccc(C(F)(F)F)c1)c1ccccc1`, for which the Ratio turned out to be 41.
Still for that read-out and setting: next, `CCc1ccc(NC(=O)N[C@@H](C)c2ccccc2)cc1`: 62.
Same read-out and setting: next, `COc1ccccc1NC(=O)N[C@@H](C)c1ccccc1`: 28.
As for `CC(C)c1ccc(NC(=O)N[C@H](C)c2ccccc2)cc1`, the Ratio amounted to 47.
For the molecule `C[C@H](NC(=O)Nc1ccc(Cl)c(Cl)c1)c1ccccc1`, the Ratio came out at 57.
With `CCc1ccccc1NC(=O)N[C@H](C)c1ccccc1`, the Ratio was found to be 8.
Still for that read-out and setting: next, `C[C@@H](NC(=O)Nc1ccc(C(C)(C)C)cc1)c1ccccc1`: 35; `C[C@H](NC(=O)Nc1cccc(Cl)c1)c1ccccc1`: 57; `Cc1ccccc1NC(=O)N[C@@H](C)c1ccccc1`: 21.

Test system in a further data set: not listed separately
Description: Hydrophobicity, log K of the compound. The class given is physicochemical. To be noted: octanol/water.
As for `C[C@H](NC(=O)Nc1ccccc1Cl)c1ccccc1`, the “log K” value is 0.486.
Same read-out and setting: next, `C[C@@H](NC(=O)Nc1cccc(C(F)(F)F)c1)c1ccccc1`: 0.542; `CCc1ccc(NC(=O)N[C@@H](C)c2ccccc2)cc1`: 0.487.
The same measure, in the same setting: next, `COc1ccccc1NC(=O)N[C@@H](C)c1ccccc1`: 0.343; `CC(C)c1ccc(NC(=O)N[C@H](C)c2ccccc2)cc1`: 0.577; `C[C@H](NC(=O)Nc1ccc(Cl)c(Cl)c1)c1ccccc1`: 0.61.
As to `CCc1ccccc1NC(=O)N[C@H](C)c1ccccc1`, the “log K” value turned out to be 0.422.
The same measure, in the same setting: next, `C[C@@H](NC(=O)Nc1ccc(C(C)(C)C)cc1)c1ccccc1`: 0.673.
Still for that read-out and setting: next, `C[C@H](NC(=O)Nc1cccc(Cl)c1)c1ccccc1`: 0.47.
Still for that read-out and setting: next, `Cc1ccccc1NC(=O)N[C@@H](C)c1ccccc1`: 0.337.

The test system of a further data set is Oryza sativa. Description: Effect on Oryza sativa (rice) assessed as growth rate at 1 uM relative to control. In kind it is organism-based. To be noted: in vivo.
Consider `C[C@H](NC(=O)Nc1ccccc1Cl)c1ccccc1`, for which the Activity stood at 104%.
Same read-out and setting: next, `C[C@@H](NC(=O)Nc1cccc(C(F)(F)F)c1)c1ccccc1`: 72%.
The same measure, in the same setting: next, `CCc1ccc(NC(=O)N[C@@H](C)c2ccccc2)cc1`: 95%; `COc1ccccc1NC(=O)N[C@@H](C)c1ccccc1`: 99%.
As to `CC(C)c1ccc(NC(=O)N[C@H](C)c2ccccc2)cc1`, the Activity came to 79%.
In the case of `C[C@H](NC(=O)Nc1ccc(Cl)c(Cl)c1)c1ccccc1`, the Activity is recorded as 97%.
As to `CCc1ccccc1NC(=O)N[C@H](C)c1ccccc1`, the Activity was 100%.
On the same count and under the same terms, next, `C[C@@H](NC(=O)Nc1ccc(C(C)(C)C)cc1)c1ccccc1`: 88%; `C[C@H](NC(=O)Nc1cccc(Cl)c1)c1ccccc1`: 99%.
Regarding `Cc1ccccc1NC(=O)N[C@@H](C)c1ccccc1`, the Activity came to 99%.

The test system of another data set is Oryza sativa. Description: Relieving activity against bensulfuron-methyl induced injury to Oryza sativa (rice) assessed as growth rate at 1 uM (Rbv = 46 to 53%). In kind it is functional.
Settings: not given
`C[C@H](NC(=O)Nc1ccccc1Cl)c1ccccc1`: the Activity stood at 91%.
Take `C[C@@H](NC(=O)Nc1cccc(C(F)(F)F)c1)c1ccccc1`: the Activity is given as 63%.
Turning to `CCc1ccc(NC(=O)N[C@@H](C)c2ccccc2)cc1`, the Activity turned out to be 80%.
Still for that read-out and setting: next, `COc1ccccc1NC(=O)N[C@@H](C)c1ccccc1`: 68%.
Still for that read-out and setting: next, `CC(C)c1ccc(NC(=O)N[C@H](C)c2ccccc2)cc1`: 67%; `C[C@H](NC(=O)Nc1ccc(Cl)c(Cl)c1)c1ccccc1`: 78%.
The same measure, in the same setting: next, `CCc1ccccc1NC(=O)N[C@H](C)c1ccccc1`: 55%; `C[C@@H](NC(=O)Nc1ccc(C(C)(C)C)cc1)c1ccccc1`: 64%.
As for `C[C@H](NC(=O)Nc1cccc(Cl)c1)c1ccccc1`, the Activity is on record as 79%.
For the molecule `Cc1ccccc1NC(=O)N[C@@H](C)c1ccccc1`, the Activity was 60%.

The test system of a further data set is Oryza sativa. Description: Safener indices, ratio of compound effect of Oryza sativa (rice) growth rate to relieving activity against bensulfuron-methyl induced injury to Oryza sativa growth rate at 10 uM.
Settings: not given
Take `C[C@H](NC(=O)Nc1ccccc1Cl)c1ccccc1`: the Ratio was 95.
Turning to `C[C@@H](NC(=O)Nc1cccc(C(F)(F)F)c1)c1ccccc1`, the Ratio stood at 50.
Same read-out and setting: next, `CCc1ccc(NC(=O)N[C@@H](C)c2ccccc2)cc1`: 72; `COc1ccccc1NC(=O)N[C@@H](C)c1ccccc1`: 46.
The same measure, in the same setting: next, `CC(C)c1ccc(NC(=O)N[C@H](C)c2ccccc2)cc1`: 34.
Turning to `C[C@H](NC(=O)Nc1ccc(Cl)c(Cl)c1)c1ccccc1`, the Ratio is 81.
For `CCc1ccccc1NC(=O)N[C@H](C)c1ccccc1`, the Ratio amounted to 47.
Regarding `C[C@@H](NC(=O)Nc1ccc(C(C)(C)C)cc1)c1ccccc1`, the Ratio is listed as 42.
For `C[C@H](NC(=O)Nc1cccc(Cl)c1)c1ccccc1`, the Ratio amounted to 82.
Still for that read-out and setting: next, `Cc1ccccc1NC(=O)N[C@@H](C)c1ccccc1`: 58.
